Assays:
MDA-MB-453 [1] = conditions: 72 h
Procedure, shortened: (§1)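 Per-plate normalisation used 0.1 % DMSO and a positive kill control. Breast cancer cell lines (20 µl suspension) were seeded into 384-well plates containing compound at 5 concentrations in 10-fold steps across a compound-specific 10,000-fold range, incubated for 72 h, and read first for CellTox Green fluorescence (485/520 nm), then for CellTiter-Glo luminescence. EC50 was fitted from the dose-response curves and censored at the top concentration.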

DU-4475 [2] = conditions: 72 h
Procedure, shortened: as §1

CAL-51 [3] = conditions: 72 h
Procedure, shortened: as §1

MDA-MB-453 [4] = conditions: 72 h; remark: listed apart in the source
Procedure, shortened: (§2)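 EC50 is the value from a fitted percent-inhibition dose-response curve, censored at the highest concentration, and rows with zero drug sensitivity score were not kept. The underlying assay seeded breast cancer cell lines in 20 µl onto 384-well plates pre-loaded with compound in 5 µl medium for 72 h. Viability was then read by CellTiter-Blue fluorescence at 560/590 nm after 2 h at 37 °C, with each plate normalised to vehicle and a positive kill control.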

DU-4475 [5] = conditions: 72 h; remark: listed apart in the source
Procedure, shortened: as §2

CAL-85-1 [6] = conditions: 72 h
Procedure, shortened: as §2

CAL-148 [7] = conditions: 72 h
Procedure, shortened: as §2

MDA-MB-453 [8] = test: normalised viability (% of control), CellTiter-Blue; higher = more viable cells (about 100 = DMSO control); conditions: incubation time: 72 h
Procedure: (§3)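 DSRT, CellTiter-Blue viability, 72 h incubation. Signal is normalised to DMSO and benzethonium chloride controls. Value is the normalised response at dose 9.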

DU-4475 [9] = test: as above; conditions: incubation time: 72 h
Procedure: as §3

CAL-51 [10] = test: as above; conditions: incubation time: 72 h
Procedure: as §3

HDQ-P1 = test: as above; conditions: incubation time: 72 h
Procedure: as §3

CAL-85-1 [11] = test: as above; conditions: incubation time: 72 h
Procedure: as §3

CAL-148 [12] = test: as above; conditions: incubation time: 72 h
Procedure: as §3

BT-549 = test: normalised response (% of control), CellTiter-Glo; higher = more viable cells (100 = DMSO, 0 = benzethonium chloride kill control); conditions: incubation time: 72 h
Procedure, shortened: (§4)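 Two readouts were taken after 72 h: CellTox Green fluorescence (485/520 nm) first, then CellTiter-Glo luminescence after 10 min at room temperature. Breast cancer cell lines had been seeded as 20 µl suspension into 384-well plates holding compound at 5 concentrations in 10-fold steps across a compound-specific 10,000-fold range. Each value is a normalised signal at a single concentration, with plates scaled to 0.1 % DMSO (100) and a positive kill control (0).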

DU-4475 [13] = test: as above; conditions: incubation time: 72 h
Procedure, shortened: as §4

MFM-223 = test: as above; conditions: incubation time: 72 h
Procedure, shortened: as §4

MDA-MB-436 = test: as above; conditions: incubation time: 72 h
Procedure, shortened: as §4

MDA-MB-468 = test: as above; conditions: incubation time: 72 h
Procedure, shortened: as §4

CAL-51 [14] = test: as above; conditions: incubation time: 72 h
Procedure, shortened: as §4

SK-BR-3 = test: as above; conditions: incubation time: 72 h
Procedure, shortened: as §4

CAL-120 = test: as above; conditions: incubation time: 72 h
Procedure, shortened: as §4

BT-474 = test: as above; conditions: incubation time: 72 h
Procedure, shortened: as §4

HCC1599 = test: as above; conditions: incubation time: 72 h
Procedure, shortened: as §4

O=[N+]([O-])c1ccc2c(c1)S(=O)(=O)C=C2 [Stattic] was tested, and the “EC50, CellTiter-Glo” value (MDA-MB-453 [1]) was 3.72 µM, the “EC50, CellTiter-Glo” value (DU-4475 [2]) was 16.3 µM and the “EC50, CellTiter-Glo” value (CAL-51 [3]) was 1.54 µM.

With CC(C)n1cnc2c(NCCc3ccc(O)cc3)nc(-c3csc4ccccc34)nc21 [StemRegenin 1] the “EC50, CellTiter-Glo” value (MDA-MB-453 [1]) was greater than 10 µM.

With COc1c2occc2cc2ccc(=O)oc12 [Methoxsalen] the “EC50, CellTiter-Blue viability” value (MDA-MB-453 [4]) was 7.9 µM, the “EC50, CellTiter-Blue viability” value (DU-4475 [5]) was 6.86 µM and the “EC50, CellTiter-Blue viability” value (CAL-85-1 [6]) was 9.05 µM. The “EC50, CellTiter-Blue viability” value (CAL-148 [7]) was 6.36 µM.

With CC(O)(CS(=O)(=O)c1ccc(F)cc1)C(=O)Nc1ccc(C#N)c(C(F)(F)F)c1 (configuration not stated) [Bicalutamide] the “EC50, CellTiter-Glo” value (MDA-MB-453 [1]) was greater than 10 µM.

With C=CCN(/C=C1/C(=O)O[C@H](COC)[C@@]2(C)C1=C(O)C(=O)C1=C2[C@H](OC(C)=O)C[C@]2(C)C(=O)CC[C@@H]12)CC=C [Sonolisib] the “EC50, CellTiter-Glo” value (CAL-51 [3]) was 0.39 µM.

In the case of Cn1cc(C2=C(c3cn(C4CCN(Cc5ccccn5)CC4)c4ccccc34)C(=O)NC2=O)c2ccccc21 [Enzastaurin], the “EC50, CellTiter-Blue viability” value (MDA-MB-453 [4]) is reported as 0.408 µM and the “EC50, CellTiter-Blue viability” value (CAL-148 [7]) is reported as 0.024 µM.

With CC1(COc2ccc3c(c2)ncn3-c2ccc3cccc(N4CCC(N)CC4)c3n2)COC1 [Crenolanib] the “EC50, CellTiter-Glo” value (MDA-MB-453 [1]) was 5.37 µM, the “EC50, CellTiter-Glo” value (DU-4475 [2]) was 3.33 µM and the “EC50, CellTiter-Glo” value (CAL-51 [3]) was 2.63 µM.

With Cc1cn(-c2cc(NC(=O)c3ccc(C)c(Nc4nccc(-c5cccnc5)n4)c3)cc(C(F)(F)F)c2)cn1 [Nilotinib] the “EC50, CellTiter-Glo” value (CAL-51 [3]) was 0.0326 µM.

CC1(C)CCC(c2ccc(Cl)cc2)=C(CN2CCN(c3ccc(C(=O)NS(=O)(=O)c4ccc(N[C@H](CCN5CCOCC5)CSc5ccccc5)c(S(=O)(=O)C(F)(F)F)c4)cc3)CC2)C1 [Navitoclax] was tested, and the “EC50, CellTiter-Blue viability” value (DU-4475 [5]) was 0.286 µM, the “EC50, CellTiter-Blue viability” value (CAL-148 [7]) was 0.129 µM and the “EC50, CellTiter-Glo” value (MDA-MB-453 [1]) was 6.68 µM. For the same compound, the “EC50, CellTiter-Glo” value (DU-4475 [2]) was 2.99 µM and the “EC50, CellTiter-Glo” value (CAL-51 [3]) was 1.26 µM.

With CCN(CC)CCCC(C)Nc1ccnc2cc(Cl)ccc12 (configuration not stated) [Chloroquine] the “EC50, CellTiter-Glo” value (MDA-MB-453 [1]) was 4.03 µM, the “EC50, CellTiter-Glo” value (DU-4475 [2]) was 18.7 µM and the “EC50, CellTiter-Glo” value (CAL-51 [3]) was 6.56 µM.

Work on Cc1cc(Nc2nc(N[C@@H](C)c3ncc(F)cn3)ncc2Cl)[nH]n1 [AZD1480] (1000 nM) yielded a normalised viability (MDA-MB-453 [8]) of 56.6%, a normalised viability (DU-4475 [9]) of 74.7% and a normalised viability (CAL-51 [10]) of 86.3%. It also gave a normalised viability (HDQ-P1) of 137%, a normalised viability (CAL-85-1 [11]) of 88.4% and a normalised viability (CAL-148 [12]) of 100%. It also gave a normalised response (BT-549) of 82.1%, a normalised response (DU-4475 [13]) of 81.7% and a normalised response (MFM-223) of 50.8%. It also gave a normalised response (MDA-MB-436) of 91.6%, a normalised response (MDA-MB-468) of 84.6% and a normalised response (CAL-51 [14]) of 110%. It also gave a normalised response (SK-BR-3) of 90.5%, a normalised response (CAL-120) of 70% and a normalised response (BT-474) of 82.5%. The normalised response (HCC1599) was 104%.

CCNC(=O)c1noc(-c2cc(C(C)C)c(O)cc2O)c1-c1ccc(CN2CCOCC2)cc1 [NVP-AUY922] (1000 nM) was tested, and the normalised viability (MDA-MB-453 [8]) was 7.53%, the normalised viability (DU-4475 [9]) was 2.34% and the normalised viability (CAL-51 [10]) was 8.3%. For the same compound, the normalised viability (HDQ-P1) was 32.7%, the normalised viability (CAL-85-1 [11]) was 26.6% and the normalised viability (CAL-148 [12]) was 18.6%. For the same compound, the normalised response (BT-549) was 39.8%, the normalised response (DU-4475 [13]) was -0.14% and the normalised response (MFM-223) was 36.3%. For the same compound, the normalised response (MDA-MB-436) was 50.9%, the normalised response (MDA-MB-468) was 22.6% and the normalised response (CAL-51 [14]) was 13.5%. The normalised response (SK-BR-3) was 39.4%, the normalised response (CAL-120) was 47.9% and the normalised response (BT-474) was 25.6%. The normalised response (HCC1599) was 77%.

CC[C@H](CO)Nc1nc(NCc2ccccc2)c2ncn(C(C)C)c2n1 [Seliciclib] was tested, and the “EC50, CellTiter-Glo” value (CAL-51 [3]) was 0.595 µM.

In the case of CN(C)C(=N)NC(=N)N [Metformin], the “EC50, CellTiter-Glo” value (CAL-51 [3]) is reported as 0.36 µM.

CC(=O)[C@]1(O)Cc2c(O)c3c(c(O)c2[C@@H](O[C@H]2C[C@H](N)[C@H](O)[C@H](C)O2)C1)C(=O)c1ccccc1C3=O [Idarubicin] (1000 nM) gave a normalised viability (MDA-MB-453 [8]) of 11.6%, a normalised viability (DU-4475 [9]) of 0.02% and a normalised viability (CAL-51 [10]) of 1.95%. It also gave a normalised viability (HDQ-P1) of 17%, a normalised viability (CAL-85-1 [11]) of 6.92% and a normalised viability (CAL-148 [12]) of 1.34%. The normalised response (BT-549) was 6.26%, the normalised response (DU-4475 [13]) was 0.36% and the normalised response (MFM-223) was 9.33%. It also gave a normalised response (MDA-MB-436) of 20.6%, a normalised response (MDA-MB-468) of 5.57% and a normalised response (CAL-51 [14]) of 0.98%. The normalised response (SK-BR-3) was 7.62%, the normalised response (CAL-120) was 30% and the normalised response (BT-474) was 16.6%. For the same compound, the normalised response (HCC1599) was 7.7%.

CCNC(=O)CCC/C=C\C[C@@H]1[C@@H](/C=C/[C@@H](O)CCc2ccccc2)[C@H](O)C[C@@H]1O [Bimatoprost] (5500 nM) gave a normalised viability (MDA-MB-453 [8]) of 106%, a normalised viability (DU-4475 [9]) of 107% and a normalised viability (CAL-51 [10]) of 114%. It also gave a normalised viability (HDQ-P1) of 115%, a normalised viability (CAL-85-1 [11]) of 92.2% and a normalised viability (CAL-148 [12]) of 92.2%. For the same compound, the normalised response (BT-549) was 102%, the normalised response (DU-4475 [13]) was 96.7% and the normalised response (MFM-223) was 88.2%. The normalised response (MDA-MB-436) was 104%, the normalised response (MDA-MB-468) was 91.6% and the normalised response (CAL-51 [14]) was 160%. For the same compound, the normalised response (SK-BR-3) was 83.8%, the normalised response (CAL-120) was 95.8% and the normalised response (BT-474) was 95%. For the same compound, the normalised response (HCC1599) was 89.5%.

CC(C)(C)c1nc(-c2cccc(NS(=O)(=O)c3c(F)cccc3F)c2F)c(-c2ccnc(N)n2)s1 [Dabrafenib] was tested, and the “EC50, CellTiter-Glo” value (DU-4475 [2]) was 0.06 µM.

With CC(C)(C)NC(=O)[C@H]1CC[C@H]2[C@@H]3CC[C@H]4NC(=O)C=C[C@]4(C)[C@H]3CC[C@]12C [Finasteride] (10000 nM) the normalised viability (MDA-MB-453 [8]) was 23%, the normalised viability (DU-4475 [9]) was 0.15% and the normalised viability (CAL-51 [10]) was 33.7%. For the same compound, the normalised viability (HDQ-P1) was 135%, the normalised viability (CAL-85-1 [11]) was 51.9% and the normalised viability (CAL-148 [12]) was 36.5%. For the same compound, the normalised response (BT-549) was 91.7%, the normalised response (DU-4475 [13]) was 103% and the normalised response (MFM-223) was 93.4%. It also gave a normalised response (MDA-MB-436) of 108%, a normalised response (MDA-MB-468) of 102% and a normalised response (CAL-51 [14]) of 91.7%. For the same compound, the normalised response (SK-BR-3) was 94.4%, the normalised response (CAL-120) was 99.7% and the normalised response (BT-474) was 96.5%. It also gave a normalised response (HCC1599) of 97%.

Reference: the supplement of paper PMC4862054
